{
  "source": "patent US20240309022A1",
  "about": "“Metal-Organic Frameworks with Pyrazole-Based Building Blocks” (BASF SE, priority 2021, published 2024)",
  "key": {"[1]": {"experiment": "Evaporation of active ingredient in thermogravimetric analyzer", "assay_type": "physicochemical", "conditions": "during 1 hour at 30° C.; continuous flow of N2 gas", "procedure": "The evaporation of 5-ethoxy-3-methyl-1H-pyrazole and the corresponding Zn MOF of 5-ethoxy-3-methyl-1H-pyrazole, i.e. Zinc-5-Ethoxy-3-Methyl-Pyrazolate, has been measured in a thermogravimetric analyzer instrument by the following procedure. A few milligrams of the test substance were positioned on the probe of the thermogravimetric analyzer, in a continuous flow of N2 gas. After equilibrating the system to 30° C., the weight of the sample was monitored over a time period of 65 minutes at a temperature of 30° C."}, "[2]": {"system": "nitrification in soil Limburgerhof (microbial community)", "experiment": "Soil incubation with inhibitor mixed into ammonium sulfate nitrate melt (Example 5)", "assay_type": "cell-based", "conditions": "after 14 days, added to ASS melt at 125° C.", "procedure": "The MOF of Example 3 was tested as follows in terms of the inhibition of nitrification: The nitrification inhibition capacity was tested after incubation of soil. In the experiment 50 g soil (soil Limburgerhof with pH (CaCl2)) 6, 73% sand, 23% silt, 4% clay, which is classified according to FAO as sandy loam) was filled into 250 ml plastic bottles and was moistened to 50% water holding capacity. The soil was incubated at 20° C. for about one week prior to the experiments to activate the microbial community. Ammonium sulfate nitrate (ASS) was heated to 125° C. in presence of 4% water. After the ASS had melted, Zinc-5-Ethoxy-3-Methyl-Pyrazolate or the underlying pyrazole compound was added and was mixed in for 1 minute. Afterwards, the melted ASS was poured onto a metal plate and cooled down to room temperature. Depending on treatment, 26.3 mg the treated ASS were milled and added to the soil and everything was mixed well. […] The fertilizer amount used for the experiment was calculated to contain 5 mg nitrogen in the form of ammonium sulfate-N(NH4—N)). […] Ammonium and nitrate content is then analyzed in the filtrate using an autoanalyzer. Ammonium was quantified via an indophenol blue dye at 660 nm, and nitrate via an azo dye at 540 nm. The nitrification inhibition is expressed as % of NH4—N recovery from fertilized NH4—N-(100%) after subtraction of unfertilized control soil."}, "[3]": {"system": "nitrification in soil (microbial biomass)", "experiment": "Soil incubation test for inhibition of nitrification (Example 4)", "assay_type": "cell-based", "conditions": "n=4", "procedure": "100 g soil is filled into 500 ml plastic bottles (e.g. soil sampled from the field) and is moistened to 50% water holding capacity. The soil is incubated at 20° C. for two weeks to activate the microbial biomass. 1 ml test solution, containing the components of the mixture in the appropriate concentration (usually from 0.1 to 3% of nitrogen N), or DMSO and 10 mg nitrogen in the form of ammoniumsulfate-N is added to the soil and everything mixed well. Bottles are capped but loosely to allow air exchange. The bottles are then incubated at 20° C. for 0, 14 and 28 days.\nFor analysis, 300 ml of a 1% K2SO4-solution is added to the bottle containing the soil and shaken for 2 hours in a horizontal shaker at 150 rpm. Then the whole solution is filtered through a filter (Macherey-Nagel Filter MN 807%). Ammonium and nitrate content is then analyzed in the filtrate in an autoanalyzer at 550 nm (Merck, AA11).\nThe inhibition (NI@a specified concentration) is calculated as follows:\n4 tests regarding the inhibition of nitrification were performed in each case (n=4).\nThe tested amounts were 0.3 and 1% by weight of component (ii) of the MOF relative to NH4—N."}, "[4]": {"system": "N2O emission", "experiment": "N2O inhibition in vegetation hall over 10 days using ammonium sulfate as fertilizer", "conditions": "10 days cumulative", "description": "N2O inhibition in vegetation hall over 10 days (cumulative values) using AS (ammonium sulfate) as fertilizer: […]"}, "[5]": {"conditions": "0.3 wt.-% of pyrazolate relative to NH4—N, after 14 days"}, "[6]": {"conditions": "0.3 wt.-% of pyrazolate relative to NH4—N, after 28 days"}, "[7]": {"conditions": "1.0 wt.-% of pyrazolate relative to NH4—N, after 14 days"}, "[8]": {"conditions": "1.0 wt.-% of pyrazolate relative to NH4—N, after 28 days"}},
  "data": [
    {"smiles": "CCOc1cc(C)n[nH]1", "note": "[5-ethoxy-3-methyl-1H-pyrazole]", "values": [
      {"measurement": "% loss (evaporation of active ingredient)", "setting": "[1]", "result": 5.6, "unit": "%"},
      {"measurement": "Residual amounts of NH4 (% of NH4—N recovery from fertilized NH4—N)", "setting": "[2]; 0.3 wt.-% relative to NH4—N", "result": 45.4, "unit": "%"},
      {"measurement": "Residual amounts of NH4 (% of NH4—N recovery from fertilized NH4—N)", "setting": "[2]; 0.8 wt.-% relative to NH4—N", "result": 57.0, "unit": "%"}
    ]},
    {"smiles": "COc1cc(C)n[nH]1", "note": "[5-Methoxy-3-Methyl-1H-Pyrazole]", "values": [
      {"measurement": "Reduction of NO3− production", "setting": "[3]; [5]", "result": 75},
      {"measurement": "Residual amounts of NH4", "setting": "[3]; [5]", "result": 70},
      {"measurement": "Reduction of NO3− production", "setting": "[3]; [6]", "result": 40},
      {"measurement": "Residual amounts of NH4", "setting": "[3]; [6]", "result": 34},
      {"measurement": "Reduction of NO3− production", "setting": "[3]; [7]", "result": 88},
      {"measurement": "Residual amounts of NH4", "setting": "[3]; [7]", "result": 90},
      {"measurement": "Reduction of NO3− production", "setting": "[3]; [8]", "result": 74},
      {"measurement": "Residual amounts of NH4", "setting": "[3]; [8]", "result": 68},
      {"measurement": "% Emission (N2O)", "setting": "[4]; 0.3 wt.-% relative to NH4—N", "result": 10.4, "unit": "%"},
      {"measurement": "% Inhibition (N2O)", "setting": "[4]; 0.3 wt.-% relative to NH4—N", "result": 89.6, "unit": "%"},
      {"measurement": "Emission cumulative minus background (N2O)", "setting": "[4]; 0.3 wt.-% relative to NH4—N", "result": 393},
      {"measurement": "% Emission (N2O)", "setting": "[4]; 1.0 wt.-% relative to NH4—N", "result": 5.0, "unit": "%"},
      {"measurement": "% Inhibition (N2O)", "setting": "[4]; 1.0 wt.-% relative to NH4—N", "result": 95.0, "unit": "%"},
      {"measurement": "Emission cumulative minus background (N2O)", "setting": "[4]; 1.0 wt.-% relative to NH4—N", "result": 191}
    ]}
  ]
}
